Measured values published in US11918582B2 (RAPT Therapeutics, Inc., priority 2021, dated 2024).
Where a name gives a salt, the structure may show the parent alone.

Molecular target: T1, human HPK1 (MAP4K1) (Homo sapiens, UniProt Q92918)
T1 construct: Recombinant human HPK1 kinase domain was obtained from ThermoFisher (Cat. #PV6357) and SignalChem (Cat. #M23-11G); purchased ThermoFisher; SignalChem PV6357; M23-11G
T1 sequence (Q92918 17-274 limits assumed): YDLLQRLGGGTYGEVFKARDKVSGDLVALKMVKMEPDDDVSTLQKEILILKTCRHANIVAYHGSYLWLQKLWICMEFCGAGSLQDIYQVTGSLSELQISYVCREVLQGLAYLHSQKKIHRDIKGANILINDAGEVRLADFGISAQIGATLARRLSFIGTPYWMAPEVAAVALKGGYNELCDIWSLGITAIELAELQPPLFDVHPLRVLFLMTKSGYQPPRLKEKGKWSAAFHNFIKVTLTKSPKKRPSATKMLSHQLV
Assay: Biochemical assay for activity against HPK1 (ADP-Glo, MBP substrate)
Conditions: recombinant human HPK1 kinase domain, 1 nM enzyme, ADP-Glo luminescence
Summary of the method: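 Recombinant human HPK1 kinase domain (1 nM solution) preincubated 15 min at room temperature with compounds in pH 7.5 HEPES buffer with NaCl, TCEP, MgCl2, Tween-20, BSA. MBP substrate with ATP added, reaction run 2 h at room temperature. ADP formation read by ADP-Glo luminescence to give IC50.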

`COc1cc2c(cc1Nc1ncc3cnn(C[C@@H]4COCCN4C(C)=O)c3n1)CN(C)CC2` [Example 129, (R)-1-(3-((6-((6-methoxy-2-methyl-1,2,3,4-tetrahydroisoquinolin-7-yl)amino)-1H-pyrazolo[3,4-d]pyrimidin-1-yl)methyl)morpholino)ethan-1-one trifluoroacetate] was tested, and the IC50 was < 100 nM.

`COc1cc2c(cc1Nc1ncc3cnn(C[C@@H]4C[C@@H](O)CN4C(C)=O)c3n1)CN(C)CC2` [Example 130, 1-((2S,4R)-4-hydroxy-2-((6-((6-methoxy-2-methyl-1,2,3,4-tetrahydroisoquinolin-7-yl)amino)-1H-pyrazolo[3,4-d]pyrimidin-1-yl)methyl)pyrrolidin-1-yl)ethan-1-one trifluoroacetate] was tested, and the IC50 was < 100 nM.

With `COc1cc2c(cc1Nc1ncc3cnn(C[C@H]4[C@@H](O)CCN4C(C)=O)c3n1)CN(C)CC2` [Example 131] the IC50 was > 251 nM.

`COc1cc2c(cc1Nc1ncc3c(C)nn([C@H]4C[C@H](CNS(C)(=O)=O)C4)c3n1)CN(C)CC2` [Example 132, N-(((1r,3r)-3-(6-((6-methoxy-2-methyl-1,2,3,4-tetrahydroisoquinolin-7-yl)amino)-3-methyl-1H-pyrazolo[3,4-d]pyrimidin-1-yl)cyclobutyl)methyl)methanesulfonamide] was tested, and the IC50 was < 100 nM.

Molecule `COc1cc2c(cc1Nc1ncc3cnn(C[C@@H]4CCN4C(C)=O)c3n1)CN(C)CC2` [Example 133, (S)-1-(2-((6-((6-methoxy-2-methyl-1,2,3,4-tetrahydroisoquinolin-7-yl)amino)-1H-pyrazolo[3,4-d]pyrimidin-1-yl)methyl)azetidin-1-yl)ethan-1-one] has an IC50 of 100 to 250 nM.

With `COc1cc2c(cc1Nc1ncc3cnn(C[C@@H]4CCCCN4C(C)=O)c3n1)CN(C)CC2` [Example 134, (S)-1-(2-((6-((6-methoxy-2-methyl-1,2,3,4-tetrahydroisoquinolin-7-yl)amino)-1H-pyrazolo[3,4-d]pyrimidin-1-yl)methyl)piperidin-1-yl)ethan-1-one] the IC50 was < 100 nM.

`COc1cc2c(cc1Nc1ncc3cnn(C[C@]4(C)CCCN4C(C)=O)c3n1)CN(C)CC2` [Example 135, (S)-1-(2-((6-((6-methoxy-2-methyl-1,2,3,4-tetrahydroisoquinolin-7-yl)amino)-1H-pyrazolo[3,4-d]pyrimidin-1-yl)methyl)-2-methylpyrrolidin-1-yl)ethan-1-one] was tested, and the IC50 was < 100 nM.

`COc1cc2c(cc1Nc1ncc3cnn(C[C@@H]4C[C@H](C)CN4C(C)=O)c3n1)CN(C)CC2` [Example 136, 1-((2S,4S)-2-((6-((6-methoxy-2-methyl-1,2,3,4-tetrahydroisoquinolin-7-yl)amino)-1H-pyrazolo[3,4-d]pyrimidin-1-yl)methyl)-4-methylpyrrolidin-1-yl)ethan-1-one] was tested, and the IC50 was 100 to 250 nM.

`COc1cc2c(cc1Nc1ncc3cnn(C[C@@H]4[C@@H]5C[C@@H]5CN4C(C)=O)c3n1)CN(C)CC2` [Example 137, 1-((1R,2S,5S)-2-((6-((6-methoxy-2-methyl-1,2,3,4-tetrahydroisoquinolin-7-yl)amino)-1H-pyrazolo[3,4-d]pyrimidin-1-yl)methyl)-3-azabicyclo[3.1.0]hexan-3-yl)ethan-1-one] was tested, and the IC50 was < 100 nM.

For `COc1cc2c(cc1Nc1ncc3cnn(C[C@@H]4C[C@@H](C)CN4C(C)=O)c3n1)CN(C)CC2` [Example 138, 1-((2S,4R)-2-((6-((6-methoxy-2-methyl-1,2,3,4-tetrahydroisoquinolin-7-yl)amino)-1H-pyrazolo[3,4-d]pyrimidin-1-yl)methyl)-4-methylpyrrolidin-1-yl)ethan-1-one], the IC50 was < 100 nM.

`CC(=O)N1CCC[C@H]1Cn1ncc2cnc(Nc3ccc4c(c3)CN(C)CC4)nc21` [Example 139, (S)-1-(2-((6-((2-methyl-1,2,3,4-tetrahydroisoquinolin-7-yl)amino)-1H-pyrazolo[3,4-d]pyrimidin-1-yl)methyl)pyrrolidin-1-yl)ethan-1-one] was tested, and the IC50 was < 100 nM.

In the case of `COc1cc2c(cc1Nc1ncc3cnn(C[C@@H]4CCCN(C(C)=O)C4)c3n1)CN(C)CC2` [Example 140, 1-[(3R)-3-[[6-[(6-methoxy-2-methyl-3,4-dihydro-1H-isoquinolin-7-yl)amino]pyrazolo[3,4-d]pyrimidin-1-yl]methyl]-1-piperidyl]ethan-1-one], the IC50 is reported as < 100 nM.

In the case of `COc1cc2c(cc1Nc1ncc3cnn(C[C@@H]4CCCN(S(C)(=O)=O)C4)c3n1)CN(C)CC2` [Example 141, 6-methoxy-2-methyl-N-[1-[[(3S)-1-methylsulfonyl-3-piperidyl]methyl]pyrazolo[3,4-d]pyrimidin-6-yl]-3,4-dihydro-1H-isoquinolin-7-amine], the IC50 is reported as < 100 nM.

`COc1cc2c(cc1Nc1ncc3cnn(C[C@H]4CCCN(C(C)=O)C4)c3n1)CN(C)CC2` [Example 142, I-[(3S)-3-[[6-[(6-methoxy-2-methyl-3,4-dihydro-1H-isoquinolin-7-yl)amino]pyrazolo[3,4-d]pyrimidin-1-yl]methyl]-1-piperidyl]ethan-1-one] was tested, and the IC50 was < 100 nM.

`COc1cc2c(cc1Nc1ncc3cnn(C[C@H]4CCCN(S(C)(=O)=O)C4)c3n1)CN(C)CC2` [Example 143, 6-methoxy-2-methyl-N-[1-[[(3R)-1-methylsulfonyl-3-piperidyl]methyl]pyrazolo[3,4-d]pyrimidin-6-yl]-3,4-dihydro-1H-isoquinolin-7-amine] was tested, and the IC50 was < 100 nM.

With `COc1cc2c(cc1Nc1ncc3cnn(C[C@@H]4C[C@H](C(F)(F)F)CN4C(C)=O)c3n1)CN(C)CC2` [Example 144, 1-[(2S,4S)-2-[[6-[(6-methoxy-2-methyl-3,4-dihydro-1H-isoquinolin-7-yl)amino]pyrazolo[3,4-d]pyrimidin-1-yl]methyl]-4-(trifluoromethyl)pyrrolidin-1-yl]ethan-1-one] the IC50 was 100 to 250 nM.

For `COc1cc2c(cc1Nc1ncc3cnn(C[C@@H]4C[C@@H](F)CN4C(C)=O)c3n1)CN(C)CC2` [Example 145, 1-[(2S,4R)-4-fluoro-2-[[6-[(6-methoxy-2-methyl-3,4-dihydro-1H-isoquinolin-7-yl)amino]pyrazolo[3,4-d]pyrimidin-1-yl]methyl]pyrrolidin-1-yl]ethan-1-one], the IC50 was 100 to 250 nM.

With `COc1cc2c(cc1Nc1ncc3cnn(C[C@@H]4C[C@H](F)CN4C(C)=O)c3n1)CN(C)CC2` [Example 146, 1-[(2S,4S)-4-fluoro-2-[[6-[(6-methoxy-2-methyl-3,4-dihydro-1H-isoquinolin-7-yl)amino]pyrazolo[3,4-d]pyrimidin-1-yl]methyl]pyrrolidin-1-yl]ethan-1-one] the IC50 was < 100 nM.

For `CN1CCc2ccc(Nc3ncc4cnn(CCS(C)(=O)=O)c4n3)cc2C1` [Example 150, 2-methyl-N-(1-(2-(methylsulfonyl)ethyl)-1H-pyrazolo[3,4-d]pyrimidin-6-yl)-1,2,3,4-tetrahydroisoquinolin-7-amine], the IC50 was < 100 nM.

With `COc1cc2c(cc1Nc1ncc3cnn(C(C)C(C)(C)C#N)c3n1)CN(C)CC2` (stereo not drawn) [Example 151, 3-(6-((6-methoxy-2-methyl-1,2,3,4-tetrahydroisoquinolin-7-yl)amino)-1H-pyrazolo[3,4-d]pyrimidin-1-yl)-2,2-dimethylbutanenitrile hydrochloride] the IC50 was < 100 nM.

In the case of `COc1cc2c(cc1Nc1ncc3cnn([C@H]4CC[C@H](O)CC4)c3n1)CNCC2` [Example 152, trans-4-(6-((6-methoxy-1,2,3,4-tetrahydroisoquinolin-7-yl)amino)-1H-pyrazolo[3,4-d]pyrimidin-1-yl)cyclohexan-1-ol], the IC50 is reported as < 100 nM.
